Key:
[1] = type: physicochemical; conditions: 30% w/w in PVP, initially amorphous, yielded crystals
Protocol: To set up an aging experiment, the sample was added into an open DSC pan and heated up on a microscope hot-stage (Linkam THMS 600) to Tm+20° C. under vacuum. The application of vacuum removed air bubbles trapped in the viscous melt. The pan was then quenched to room temperature, sealed immediately, and aged in an oven of known temperature.
To verify the solubility of D-mannitol in PVP obtained with the DSC method (Method I), we used two other solubility-indicating methods (FIG. 7). In the first (Method II), D-mannitol was mixed with PVP at a concentration higher than predicted. The mixture was then aged to see whether the supersaturated solution indeed crystallized over time. We tracked three indicators of crystallization: (a) the glass transition temperature Tg of the mixture, which is expected to increase when D-mannitol is removed from its mixture with PVP (FIG. 5); (b) the appearance of new endotherms with aging which correspond to the dissolution of newly crystallized D-mannitol; and (c) new crystals observable by polarized light microscopy. Modulated DSC (MDSC) was used to measure Tg. In the second method (Method III), D-mannitol was mixed with PVP at high enough concentration so that D-mannitol rapidly crystallized. […]
For Method II, D-mannitol was mixed with PVP by cryogenic milling at 30% w/w. […] The mixture was analyzed by DSC at times ranging from a few days to 155 days. […]

[2] = DSC dissolution-endpoint method (Method I): solubility of a crystalline substance in a polymer; conditions: for solubility in PVP: by extrapolation
Protocol: In a typical procedure, 0.5-1 g of solute/polymer powder was milled at 10 Hz. Each cycle of milling was 2 min, followed by a 2 min cool-down. The cycle was repeated to achieve a desired milling time (16-60 min).
Standard and modulated differential scanning calorimetry (DSC) was conducted in hermetic aluminium pans using a TA Instruments DSC Q1000. 5-10 mg of the sample was packed into the pans. A pin hole was made in the lid to allow the escape of moisture. Standard DSC was performed at heating rates from 0.1 to 3° C./min. Modulated DSC was used to observe the glass transition of the amorphous phase at a heating rate of 2° C./min with the temperature modulating at ±0.5° C. every 60 second.
To further minimize the effect of slow dissolution on the measurement of equilibrium solubility, we measured Tend at several heating rates (FIG. 3) and obtained the Tend at zero heating rate by extrapolation (FIG. 4).
The larger the difference (Tend−Tg), the lower the viscosity of the solution in which D-mannitol completed its dissolution. […] For such systems, Tend changed rapidly and non-linearly with the heating rate, making the extrapolation to zero heating rate less certain. […] Despite this limitation the method enabled us to get sufficiently close to Tg to estimate the solubility of D-mannitol in PVP at Tg: by extrapolation. […] At 95° C., the saturated solution exists at the glass transition temperature.
As in the case of D-mannitol/PVP, cryomilling was used to prepare drug/polymer mixtures. […] As in the case of the D-mannitol/PVP, cryomilling facilitated the determination of dissolution endpoint.

- state of the 30% solution in PVP on aging [1]: supersaturated
- predicted solubility in PVP (Method I) ([2]; 105° C., temperature chosen for the validation tests): 15%
- solubility in PVP ([2]; PVP K15, […]): 15 % w/w
- solubility in PVP ([2]; PVP K15, at 95° C., […]): 10 % w/w
Structure (SMILES): OC[C@@H](O)[C@@H](O)[C@H](O)[C@H](O)CO [D-mannitol]
